Where two headings read alike, the source gives them in different places. Where a SMILES comes first, the peptide text is derived from it. Bridges are numbered along the chain shown (N, C = ends). [ ]: non-standard residue; d: D form. The star is where a group is joined. X1 = CC[C@H](C)CCCCC(=O)*; Dab = NCC[C@H](N)C(=O)O

What is called Tmax is the time at which the peak concentration occurs. The Cmax is the highest concentration seen after dosing. A word on the AUC(0-inf): it is the area under the concentration-time curve extrapolated to infinity. A higher AUC(0-inf) goes with high exposure.

Series [1] in a line: Stability of colistin A and colistin B in plasma samples. Format: in vitro ADME. To be noted: spiked human plasma, accuracy vs theoretical concentration, LC-MS/MS, mean ± SD, n = 3; for −80 °C freeze–thaw 3 times: three freeze–thaw cycles −80 °C to room temperature. The protocol:
The calibration standard samples and QC samples were both obtained by diluting the corresponding working solution with blank plasma at a ratio of 1:19. The concentrations of the calibration standard samples were 0.10, 0.25, 0.50, 1.0, 2.5, 5.0, 8.0 and 10 μg/mL while the concentrations of the QC samples were 0.10 (LLOQ), 0.30 (LQC), 2.0 (MQC), 7.5 (HQC), and 30 (DQC) μg/mL.
(§1) The SPE column was activated by using 1 mL of methanol followed by 2 mL of ultrapure water. Subsequently, 200 μL of either calibration standard samples, QC samples, or patient plasma samples were mixed with 100 μL of IS working solution and 700 μL of 1.43 % ammonia, This step is to ensure that the solution is in a non-acidic environment. This mixture was thoroughly vortexed to ensure homogeneity. The mixed samples were then loaded onto the Welch BRP SPE columns. After sequentially washing the column with a total of 4 mL of 1 % ammonia, the analytes were eluted twice with 200 μL of […] (30:70, v/v) containing 4 % formic acid. Ultimately, 400 μL total eluate was collected and analyzed by LC-MS/MS.
(§2) This study investigated the stability of colistin A and colistin B during the assay process, including the stability of plasma samples at room temperature for 24 h, the stability through three cycles of repeated freeze–thaw from −80 °C to room temperature, the stability during storage at −80 °C for three months, and the autosampler stability of processed samples at 4°C for 24 h. Three parallel samples were prepared for each condition. If the accuracy of the samples under storage conditions is within 85 % to 115 %, the stability is considered acceptable.

The nature of series [2]: Autosampler stability of processed colistin samples. The format is physicochemical. As to conditions: autosampler 4 °C, accuracy, LC-MS/MS, mean ± SD, n = 3. The protocol:
as §1, §2

For series [3] the following is noted: cited from earlier work. The protocol:
The concentration–time curves and PK parameters of colistin and CMS are shown in Fig. 6 and Table 5, respectively. A total of three patients treated with CMS for carbapenem-resistant Gram-negative bacterial infections were included in this study (Ethical approval number: TJ-IRB20220737). The measured trough concentrations of colistin (Cmin) ranged from 0.97 μg/mL to 2.84 μ g/mL, and the average Cmin was 1.61 ± 1.06 μ g/mL.

Series [4] is described as follows: Pharmacokinetics / TDM of CMS and colistin in patient plasma. The format is in vivo, human. As to conditions: for AUC(0-t): 150 mg CBA. The method, then:
as §1
The concentration of CMS was determined by calculating the difference between the concentration of total colistin after complete in vitro conversion and the concentration of free colistin in vivo. In vitro conversion of CMS was performed by sulfuric acid hydrolysis. Samples were processed as follows: 25 μL of 1 mol/L H2SO4 was added to a tube containing 200 μL of patient plasma sample and 100 μL of IS working solution, acidified at room temperature on a shaker for 1 h, and then 50 μL of 1 mol/L NaOH was added to neutralize the acid hydrolysis to maintain the pH of the final solution in the range of 7.0–7.5. After vortex mixing, 625 μL of 1.43 % ammonia solution was added and mixed thoroughly. After this conversion process, the concentration of total colistin was determined as free colistin described above.
The study included three patients infected with carbapenem-resistant Gram-negative bacteria. The patients provided informed consent, and the research project was carried out following the regulations of the Ethics Committee (Ethical approval number: TJ-IRB20220737) of Tongji Medical College, Huazhong University of Science and Technology. The physician prescribed a weight-based dosing regimen with a 300 mg loading dose of colistin base activity (CBA) and a maintenance dose of 150 mg CBA. The sample collection for this session took place during the administration of the fourth dose. […] Blood samples were collected by EDTA tubes and placed on ice and transported to the lab within 2 h. The samples were centrifuged at a speed of 1000 g for 10 min at 4°C and the supernatant was stored at −20 °C for subsequent sample preparation.
Pharmacokinetic parameters, including area under the concentration–time curve from 0 to the last measurable time point (AUC0-t) and from 0 to infinity (AUC0-∞), peak concentration (Cmax), time to reach peak concentration (Tmax), elimination half-life (t1/2), apparent volume of distribution (V), apparent total clearance (CL), and mean residence time (MRT0-∞) were calculated using DAS 2.0 (Shanghai University of TCM, China).

Where [5] appears, read: CMS infusion, 150 mg CBA maintenance, fourth dose, plasma, LC-MS/MS, patient 1.
Where [6] appears, read: CMS infusion, 150 mg CBA maintenance, fourth dose, plasma, LC-MS/MS, patient 2.
Where [7] appears, read: CMS infusion, 150 mg CBA maintenance, fourth dose, plasma, LC-MS/MS, patient 3.

Take `CC[C@H](C)CCCCC(=O)N[C@@H](CCN)C(=O)N[C@H](C(=O)N[C@@H](CCN)C(=O)N[C@H]1CCNC(=O)[C@H]([C@@H](C)O)NC(=O)[C@H](CCN)NC(=O)[C@H](CCN)NC(=O)[C@H](CC(C)C)NC(=O)[C@@H](CC(C)C)NC(=O)[C@H](CCN)NC1=O)[C@@H](C)O` [Colistin A, colistin A] (X1-[Dab]T[Dab][Dab][Dab][dL]L[Dab][Dab]T; lactam 4-C): the “Frozen at −80 °C for 3 months” value turned out to be 101.24 ± 1.46% in series [1] (HQC 7.5 μg/mL) and 98.31 ± 5.04% in series [1] (LQC 0.30 μg/mL). The figures for the “Room temperature 24 h” value in series [1] (HQC 7.5 μg/mL) and in series [1] (LQC 0.30 μg/mL) were 91.48 ± 3.06% and 104.77 ± 4.59%, respectively. Further, the results for the “−80 °C freeze–thaw 3 times” value in series [1] (HQC 7.5 μg/mL) and in series [1] (LQC 0.30 μg/mL) were 93.04 ± 1.97% and 106.19 ± 2.48%, respectively. Further, the figures for the “Processed sample In the sampler at 4 °C for 24 h” value in series [2] (SPE eluate (acetonitrile 30:70 with 4 % formic acid) of HQC 7.5 μg/mL plasma) and in series [2] (SPE eluate (acetonitrile 30:70 with 4 % formic acid) of LQC 0.30 μg/mL plasma) were 100.74 ± 4.06% and 102.44 ± 1.43%, respectively.
Turning to `CC[C@H](C)CCCCC(=O)N[C@@H](CCN)C(=O)N[C@H](C(=O)N[C@@H](CCN)C(=O)N[C@H]1CCNC(=O)[C@H]([C@@H](C)O)NC(=O)[C@H](CCN)NC(=O)[C@H](CCN)NC(=O)[C@H](CC(C)C)NC(=O)[C@@H](CC(C)C)NC(=O)[C@H](CCN)NC1=O)[C@@H](C)O` [Colistin, colistin] (X1-[Dab]T[Dab][Dab][Dab][dL]L[Dab][Dab]T; lactam 4-C), the Tmax in series [3] (healthy subjects) was 2 h; in series [4] (setting [5]), 2.00 h; in series [4] (setting [6]), 2.00 h; in series [4] (setting [7]), 3.00 h; in series [4] (human, in vivo, iv, patients on CMS infusion (300 mg CBA loading, 150 mg CBA maintenance), fourth dose, plasma, SPE LC-MS/MS, mean ± SD of 3 patients, SD, read-out: Tmax), 2.33 ± 0.58 h. Also, the half-life was 3.0 ± 0.6 h in series [3] (healthy volunteers, ref Couet W et al., 31) and 9.94 ± 4.72 h in series [4] (human, in vivo, iv, patients on CMS infusion (300 mg CBA loading, 150 mg CBA maintenance), fourth dose, plasma, SPE LC-MS/MS, DAS 2.0, mean ± SD of 3 patients, SD, read-out: t1/2 (elimination half-life) (converted)). Further, the AUC0-12h in series [4] (setting [5]) was found to be 18730 ng·h/mL; in series [4] (setting [6]), 43030 ng·h/mL; in series [4] (setting [7]), 18490 ng·h/mL. Also, the AUC0-24h in series [4] (setting [5]) was determined as 37480 ng·h/mL; in series [4] (setting [6]) it was 85740 ng·h/mL; in series [4] (setting [7]) it was 37080 ng·h/mL; in series [4] (first of the three patients) it was 37430 ng·h/mL; in series [4] (second of the three patients) it was 86050 ng·h/mL; in series [4] (third of the three patients), 36980 ng·h/mL. For the same compound, the “AUC0-∞” value in series [4] (setting [5]) is 31440 ng·h/mL; in series [4] (setting [6]), 105170 ng·h/mL; in series [4] (setting [7]), 25180 ng·h/mL. For the same compound, the results for the “CL (apparent total clearance)” value in series [4] (setting [5]), in series [4] (setting [6]) and in series [4] (setting [7]) were 4.77 L/h, 1.43 L/h and 5.96 L/h, respectively. Also, the Cmax in series [4] (setting [5]) amounted to 2080 ng/mL; in series [4] (setting [6]), 4520 ng/mL; in series [4] (setting [7]), 2450 ng/mL; in series [4] (human, in vivo, iv, patients on CMS infusion (300 mg CBA loading, 150 mg CBA maintenance), fourth dose, plasma, SPE LC-MS/MS, mean ± SD of 3 patients, SD, read-out: Cmax), 3010 ± 1320 ng/mL. Moreover, the Cmin in series [4] (setting [5]) was 970 ng/mL; in series [4] (setting [6]) it was 2840 ng/mL; in series [4] (setting [7]) it was 1040 ng/mL; in series [4] (patients on CMS infusion (300 mg CBA loading, 150 mg CBA maintenance), fourth dose, plasma, SPE LC-MS/MS, mean ± SD of 3 patients, SD), 1610 ± 1060 ng/mL. For the same compound, the Css was determined as 1560 ng/mL in series [4] (setting [5]); 3570 ng/mL in series [4] (setting [6]); 1550 ng/mL in series [4] (setting [7]); 2230 ± 1170 ng/mL in series [4] (patients on CMS infusion (300 mg CBA loading, 150 mg CBA maintenance), fourth dose, plasma, SPE LC-MS/MS, DAS 2.0, mean ± SD of 3 patients, SD). Moreover, the figures for the “MRT0-∞ (mean residence time)” value in series [4] (setting [5]), in series [4] (setting [6]) and in series [4] (setting [7]) were 13.34 h, 22.04 h and 10.86 h, respectively. In addition, the “Vz (apparent volume of distribution)” value in series [4] (setting [5]) was 62.61 L; in series [4] (setting [6]), 30.93 L; in series [4] (setting [7]), 49.04 L. The “t1/2 (elimination half-life)” value in series [4] (setting [5]) came out at 9.09 h; in series [4] (setting [6]), 15.03 h; in series [4] (setting [7]) it was 5.71 h. The “Css,avg” value in series [4] (first of the three patients) stood at 1560 ng/mL. In addition, the AUC(0-t) in series [4] (human, in vivo, iv, patients on CMS infusion (300 mg CBA loading, 150 mg CBA maintenance), fourth dose, plasma, SPE LC-MS/MS, DAS 2.0, mean ± SD of 3 patients, SD, read-out: AUC0-12h) turned out to be 26800 ± 14100 ng·h/mL; in series [4] (human, in vivo, iv, patients on CMS infusion (300 mg CBA loading, 150 mg CBA maintenance), fourth dose, plasma, SPE LC-MS/MS, DAS 2.0, mean ± SD of 3 patients, SD, read-out: AUC0-24h) it was 53400 ± 28000 ng·h/mL. Moreover, in series [4] (human, in vivo, iv, patients on CMS infusion (300 mg CBA loading, 150 mg CBA maintenance), fourth dose, plasma, SPE LC-MS/MS, DAS 2.0, mean ± SD of 3 patients, SD), the AUC(0-inf) is 53900 ± 44500 ng·h/mL. Moreover, in series [4] (human, in vivo, iv, patients on CMS infusion (300 mg CBA loading, 150 mg CBA maintenance), fourth dose, plasma, SPE LC-MS/MS, DAS 2.0, mean ± SD of 3 patients, SD, read-out: CL (apparent total clearance) (converted)), the clearance is 67.5 mL/min. Moreover, the MRT in series [4] (human, in vivo, iv, patients on CMS infusion (300 mg CBA loading, 150 mg CBA maintenance), fourth dose, plasma, SPE LC-MS/MS, DAS 2.0, mean ± SD of 3 patients, SD, read-out: MRT0-∞ (mean residence time)) is 15.4 ± 5.87 h. Moreover, the Vd in series [4] (human, in vivo, iv, patients on CMS infusion (300 mg CBA loading, 150 mg CBA maintenance), fourth dose, plasma, SPE LC-MS/MS, DAS 2.0, mean ± SD of 3 patients, SD, read-out: Vz (apparent volume of distribution)) amounted to 47.5 ± 15.9 L. In addition, the “time at which peak concentration (Cmax) was reached” value in series [4] (in words, three patients, CMS infusion (1 h)) is given as “at 1-hour post-infusion”.
colistin methanesulfonate [CMS]: in series [3] (human, in vivo), the Tmax is listed as 1 h and the half-life is recorded as 2.0 ± 0.12 h. In series [4] (human, in vivo, iv, SD), the “CL (apparent total clearance)” value stood at 6.87 ± 1.38 L/h, the Tmax worked out at 1.33 ± 0.58 h, the “Vz (apparent volume of distribution)” value is 14.11 ± 2.39 L and the “t1/2 (elimination half-life)” value was 1.50 ± 0.57 h.

(Values after paper PMC12179625, “Development of an LC-MS/MS method for quantification of colistin and colistin methanesulfonate in human plasma and its application to stability studies and therapeutic drug monitoring” (Journal of Mass Spectrometry and Advances in the Clinical …, 2025).)
